Source: patent US10966426B2, “Herbicidal compositions comprising phenylpyrimidines” (BASF SE, priority 2016, dated 2021)

What was measured:
Type in all cases: in vivo
Matricaria chamomilla = assay: greenhouse post-emergence treatment, MATCH; conditions: Matricaria chamomilla; for inhibition at 500000 µg/mL (stock): sc, 504 h, MATCH, 21 DAT
Procedure: (§1) The culture containers used were plastic pots containing loamy sand with approximately 3.0% of humus as substrate. The seeds of the test plants were sown separately for each species.
(§2) For the post-emergence treatment, the test plants were grown to a plant height of from 3 to 15 cm, depending on the plant habit, and only then treated with the active compounds which had been suspended or emulsified in water. To this end, the test plants were either sown directly, and grown in the same containers, or they were first grown separately as seedlings and transplanted into the test containers a few days prior to treatment.
(§3) Depending on the species, the plants were kept at 10-25° C. and 20-35° C., respectively.
(§4) The test period extended over 2 to 4 weeks. During this time, the plants were tended and their response to the individual treatments was evaluated.
(§5) Evaluation was carried out using a scale from 0 to 100. 100 means no emergence of the plants, or complete destruction of at least the above-ground parts, and 0 means no damage or normal course of growth. A good herbicidal activity is given at values of at least 70, and very good herbicidal activity is given at values of at least 85.
(§6) The respective stated components A and B, and if appropriate, C were formulated as a 10% by weight strength emulsion concentrate and, with addition of the amount of solvent system, introduced into the spray liquor used for applying the active compound. In the examples, the solvent used was water.
(§7) In the examples below, using the method of S. R. Colby (1967) “Calculating synergistic and antagonistic responses of herbicide combinations”, Weeds 15, p. 22ff., the value E, which is expected if the activity of the individual active compounds is only additive, was calculated. E=X+Y−(X·Y/100) where X=effect in percent using herbicide A at an application rate a; • Y=effect in percent using herbicide B at application rate b; • E=expected effect (in %) of herbicide A+herbicide B at application rates a+b.

Polygonum convolvulus = assay: greenhouse post-emergence treatment, POLCO; conditions: Fallopia convolvulus; for inhibition at 500000 µg/mL (stock): sc, 504 h, POLCO, 21 DAT
Procedure: as §1, §2, §3, §4, §5, §6, §7

Lolium multiflorum = assay: greenhouse post-emergence treatment, LOLMU; conditions: Lolium multiflorum, LOLMU; for inhibition at 500000 µg/mL (stock): sc, 504 h, 21 DAT
Procedure: as §1
(§8) To this end, the test plants were either sown directly, and grown in the same containers, or they were first grown separately as seedlings and transplanted into the test containers a few days prior to treatment.
as §3, §4, §5
(§9) In the examples, the solvent used was water.
(§10) In the examples below, using the method of S. R. Colby (1967) “Calculating synergistic and antagonistic responses of herbicide combinations”, Weeds 15, p. […] E=X+Y−(X·Y/100) where X=effect in percent using herbicide A at an application rate a; • Y=effect in percent using herbicide B at application rate b; • E=expected effect (in %) of herbicide A+herbicide B at application rates a+b.

Brachiaria decumbens = assay: greenhouse post-emergence treatment, BRADC; conditions: for inhibition at 500000 µg/mL (stock): sc, 504 h, 21 DAT
Procedure: as §1, §2, §3, §4, §5, §6, §7

Poa annua = assay: greenhouse post-emergence treatment, POAAN; conditions: Poa annua
Procedure: as §1, §2, §3, §4, §5, §6, §7

Polygonum aviculare = assay: greenhouse post-emergence treatment, POLAV; conditions: POLAV
Procedure: as §1, §2, §3, §4, §5, §6, §7

Papaver rhoeas = assay: greenhouse post-emergence treatment, PAPRH; conditions: Papaver rhoeas, 480 h, PAPRH, 20 DAT
Procedure: as §1, §2, §3, §4, §5, §6, §7

Avena fatua = assay: greenhouse post-emergence treatment, AVEFA; conditions: Avena fatua, AVEFA; for pest or weed control at 12.5 g/ha: 480 h, 20 DAT; for inhibition at 500000 µg/mL (stock): sc, 504 h, 21 DAT
Procedure: as §1, §8, §3, §4, §5, §9, §10

Bromus sterilis = assay: greenhouse post-emergence treatment, BROST
Procedure: as §1, §8, §3, §4, §5, §9, §10

Stellaria media = assay: greenhouse post-emergence treatment, STEME; conditions: Stellaria media, sc, 504 h, STEME, 21 DAT
Procedure: as §1, §2, §3, §4, §5, §6, §7

Digitaria sanguinalis = assay: greenhouse post-emergence treatment, DIGSA; conditions: Digitaria sanguinalis, sc, 504 h, DIGSA, 21 DAT
Procedure: as §1, §8, §3, §4, §5, §9, §10

Galium aparine = assay: greenhouse post-emergence treatment, GALAP; conditions: Galium aparine, 504 h, GALAP, 21 DAT, solo metazachlor (SC 500 g/l) 250 gai/ha
Procedure: as §1, §2, §3, §4, §5, §6, §7

Setaria viridis = assay: greenhouse post-emergence treatment, SETVI; conditions: Setaria viridis, sc, 504 h, SETVI, 21 DAT, solo metazachlor (SC 500 g/l) 31.25 gai/ha
Procedure: as §1, §8, §3, §4, §5, §9, §10

[1] = solo cycloxydim (EC 100 g/l) 12.5 gai/ha
[2] = solo metazachlor (SC 500 g/l) 31.25 gai/ha
[3] = solo metazachlor (SC 500 g/l) 62.5 gai/ha
[4] = solo metazachlor (SC 500 g/l) 125 gai/ha
[5] = solo metazachlor (SC 500 g/l) 250 gai/ha

Question: With `CCCC(=NOCC)C1=C(O)CC(C2CCCSC2)CC1=O` (centres unmarked) [cycloxydim] as the compound, how does the pest or weed control at 12.5 g/ha (Matricaria chamomilla; 480 h) read?
Answer: 0%

Question: What about the pest or weed control at 25 g/ha (Matricaria chamomilla; 480 h) of the same compound?
Answer: 0%

Question: And the pest or weed control at 50 g/ha (Matricaria chamomilla; 480 h)?
Answer: 0%

Question: And the pest or weed control at 100 g/ha (Matricaria chamomilla; 480 h)?
Answer: 0%

Question: What about the pest or weed control at 12.5 g/ha (Polygonum convolvulus; 480 h) of the same compound?
Answer: 0%

Question: What about the pest or weed control at 25 g/ha (Polygonum convolvulus; 480 h) of the same compound?
Answer: 0%

Question: What about the pest or weed control at 50 g/ha (Polygonum convolvulus; 480 h) of the same compound?
Answer: 0%

Question: What about the pest or weed control at 100 g/ha (Polygonum convolvulus; 480 h) of the same compound?
Answer: 0%

Question: And the pest or weed control at 12.5 g/ha (Lolium multiflorum; 480 h, cycloxydim solo (EC 100 g/l), 12.5 gai/ha, 20 DAT)?
Answer: 90%

Question: What about the “% activity” value (Brachiaria decumbens; BRADC, 20 DAT, solo cycloxydim (EC 100 g/l) 12.5 gai/ha) of the same compound?
Answer: 65%

Question: And the pest or weed control at 12.5 g/ha (Brachiaria decumbens; Urochloa decumbens, 480 h)?
Answer: 65%

Question: And the pest or weed control at 12.5 g/ha (Poa annua; 480 h)?
Answer: 0%

Question: And the pest or weed control at 25 g/ha (Poa annua; 480 h)?
Answer: 0%

Question: And the pest or weed control at 50 g/ha (Poa annua; 480 h)?
Answer: 0%

Question: What about the pest or weed control at 100 g/ha (Poa annua; 480 h) of the same compound?
Answer: 0%

Question: What about the “% activity” value (Polygonum aviculare; 20 DAT, solo cycloxydim (EC 100 g/l) 12.5 gai/ha) of the same compound?
Answer: 0%

Question: And the “% activity” value (Polygonum aviculare; 20 DAT, solo cycloxydim (EC 100 g/l) 25 gai/ha)?
Answer: 0%

Question: What about the “% activity” value (Polygonum aviculare; 20 DAT, solo cycloxydim (EC 100 g/l) 50 gai/ha) of the same compound?
Answer: 0%

Question: What about the “% activity” value (Polygonum aviculare; 20 DAT, solo cycloxydim (EC 100 g/l) 100 gai/ha) of the same compound?
Answer: 0%

Question: And the “% activity” value (Polygonum aviculare; cycloxydim solo (EC 100 g/l), 12.5 gai/ha, 20 DAT)?
Answer: 0%

Question: What about the “% activity” value (Polygonum aviculare; cycloxydim solo (EC 100 g/l), 25 gai/ha, 20 DAT) of the same compound?
Answer: 0%

Question: And the “% activity” value (Polygonum aviculare; cycloxydim solo (EC 100 g/l), 100 gai/ha, 20 DAT)?
Answer: 0%

Question: And the pest or weed control at 12.5 g/ha (Papaver rhoeas; [1])?
Answer: 0%

Question: And the pest or weed control at 100 g/ha (Papaver rhoeas; solo cycloxydim (EC 100 g/l) 100 gai/ha)?
Answer: 0%

Question: What about the pest or weed control at 12.5 g/ha (Avena fatua; [1]) of the same compound?
Answer: 20%

Question: And the pest or weed control at 12.5 g/ha (Avena fatua; cycloxydim solo (EC 100 g/l), 12.5 gai/ha)?
Answer: 20%

Question: What about the “% activity” value (Bromus sterilis; BROST, 20 DAT, solo cycloxydim (EC 100 g/l) 12.5 gai/ha) of the same compound?
Answer: 25%

Question: And the pest or weed control at 12.5 g/ha (Bromus sterilis; Bromus sterilis, 480 h)?
Answer: 25%

Question: What does the source list for `Cc1cccc(C)c1N(Cn1cccn1)C(=O)CCl` [metazachlor]?
Answer: inhibition at 500000 µg/mL (stock) (Stellaria media; [2]): 0%; inhibition at 500000 µg/mL (stock) (Stellaria media; [3]): 0%; inhibition at 500000 µg/mL (stock) (Stellaria media; [4]): 25%; inhibition at 500000 µg/mL (stock) (Stellaria media; [5]): 35%; inhibition at 500000 µg/mL (stock) (Matricaria chamomilla; [2]): 0%; inhibition at 500000 µg/mL (stock) (Matricaria chamomilla; [3]): 0%; inhibition at 500000 µg/mL (stock) (Matricaria chamomilla; [5]): 20%; inhibition at 500000 µg/mL (stock) (Polygonum convolvulus; [2]): 0%; inhibition at 500000 µg/mL (stock) (Polygonum convolvulus; [3]): 0%; inhibition at 500000 µg/mL (stock) (Polygonum convolvulus; [4]): 10%; inhibition at 500000 µg/mL (stock) (Polygonum convolvulus; [5]): 20%; inhibition at 500000 µg/mL (stock) (Lolium multiflorum; [2]): 30%; inhibition at 500000 µg/mL (stock) (Lolium multiflorum; [4]): 85%; inhibition at 500000 µg/mL (stock) (Lolium multiflorum; [5]): 85%; inhibition at 500000 µg/mL (stock) (Brachiaria decumbens; Urochloa decumbens, BRADC, solo metazachlor (SC 500 g/l) 31.25 gai/ha): 10%; inhibition at 500000 µg/mL (stock) (Brachiaria decumbens; Urochloa decumbens, BRADC, solo metazachlor (SC 500 g/l) 62.5 gai/ha): 20%; inhibition at 500000 µg/mL (stock) (Brachiaria decumbens; Urochloa decumbens, BRADC, solo metazachlor (SC 500 g/l) 125 gai/ha): 25%; inhibition at 500000 µg/mL (stock) (Brachiaria decumbens; Urochloa decumbens, BRADC, solo metazachlor (SC 500 g/l) 250 gai/ha): 60%; inhibition at 500000 µg/mL (stock) (Poa annua; 504 h, POAAN, 21 DAT, solo metazachlor (SC 500 g/l) 250 gai/ha): 85%; inhibition at 500000 µg/mL (stock) (Polygonum aviculare; Polygonum aviculare, 504 h, 21 DAT, solo metazachlor (SC 500 g/l) 125 gai/ha): 25%; % activity (Polygonum aviculare; metazachlor solo (SC 500 g/l), 31.25 gai/ha, 21 DAT): 20%; inhibition at 500000 µg/mL (stock) (Digitaria sanguinalis; [2]): 0%; inhibition at 500000 µg/mL (stock) (Digitaria sanguinalis; [5]): 75%; inhibition at 500000 µg/mL (stock) (Galium aparine): 85%; inhibition at 500000 µg/mL (stock) (Avena fatua; [3]): 10%; inhibition at 500000 µg/mL (stock) (Avena fatua; [4]): 0%; inhibition at 500000 µg/mL (stock) (Avena fatua; [5]): 10%; inhibition at 500000 µg/mL (stock) (Setaria viridis): 65%
